Consider 13 compounds from US20220389061A1, “IMMUNOMODULATORS” (priority 2019, published 2022).

Starred links: 1 amine or outer side, 2 acyl side, 3 side chain; linkers in the order of their positions; H or OH if unused. Positions of bridges follow the written chain, without caps; N, C: chain ends. Non-standard residues stand in square brackets, D forms with d. Residues, ends and D or L forms follow the SMILES beside them. Groups on a side chain read outwards from the residue. *: point of attachment. Trp(1-CH2COOH) = N[C@@H](Cc1cn(CC(=O)O)c2ccccc12)C(=O)O; X18 = O=[N+]([O-])c1ccc(NC(=S)*)c(Cl)c1; X63 = COc1cc([N+](=O)[O-])ccc1NC(=S)*; X67 = S=C(Nc1c(Cl)c(Cl)cc(Cl)c1Cl)*; Hyp = O=C(O)[C@@H]1C[C@@H](O)CN1; X56 = COc1cc([N+](=O)[O-])ccc1N*; X78 = S=C(Nc1c(Cl)cc(Cl)cc1Cl)*; X28 = Cc1ccc(Cl)c(NC(=S)*)c1Cl; X30 = FC(F)(F)c1ccc(N*)c(Cl)c1; NMeNle = CCCC[C@H](NC)C(=O)O; X90 = Fc1cc(F)c(N*)c(F)c1; NMeA = CN[C@@H](C)C(=O)O; Dab = NCC[C@H](N)C(=O)O; Dap = NC[C@H](N)C(=O)O; X37 = Fc1cc(F)cc(N*)c1; X15 = Cc1ccc(Cl)cc1N*; X51 = Cc1cccc(Cl)c1N*; CO = O=C([*:1])[*:2]

The target of the first assay is T1, PD-1/PD-L1 (Homo sapiens, UniProt Q9NZQ7).
T1 construct: TVMV protease site linker (C); made in house; host or cells: HEK293T cells
T1 sequence (Q9NZQ7 18-239): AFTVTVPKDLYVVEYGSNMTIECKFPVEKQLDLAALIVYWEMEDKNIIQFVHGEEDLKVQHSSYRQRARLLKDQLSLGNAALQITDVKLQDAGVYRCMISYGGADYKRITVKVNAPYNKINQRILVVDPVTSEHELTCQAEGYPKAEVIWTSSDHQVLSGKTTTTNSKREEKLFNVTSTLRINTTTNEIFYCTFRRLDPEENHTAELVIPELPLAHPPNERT
Nature of the assay: PD-1/PD-L1 Homogenous Time-Resolved Fluorescence (HTRF) binding assay.
Conditions: not given
In outline: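 HTRF read-out using europium cryptate anti-Ig (1 nM) and APC anti-His (20 nM) on extracellular-domain fusion proteins in dPBS/0.1% BSA/0.05% Tween-20. Inhibitor first incubated 15 min with 10 nM PD-L1-His, followed by 20 nM PD-1-Ig for another 15 min.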
Take `CCCC[C@H]1C(=O)N(C)[C@@H](CCCC)C(=O)N[C@@H](CC(C)C)C(=O)N[C@H](C(=O)NCC(N)=O)CSCC(=O)N[C@@H](Cc2ccc(O)cc2)C(=O)N(C)[C@@H](C)C(=O)N[C@@H](CC(N)=O)C(=O)N2CCC[C@H]2C(=O)N[C@@H](CNC(=S)Nc2ccc([N+](=O)[O-])cc2Cl)C(=O)N[C@@H](CC(C)C)C(=O)N2C[C@H](O)C[C@H]2C(=O)N[C@@H](Cc2c[nH]c3ccccc23)C(=O)N[C@@H](CCNC(=S)Nc2ccc([N+](=O)[O-])cc2Cl)C(=O)N[C@@H](Cc2cn(CC(=O)O)c3ccccc23)C(=O)N1C` [Example 1103] ({CH2CO}-Y[NMeA]NP[Dap](X18)L[Hyp]W[Dab](X18)[Trp(1-CH2COOH)][NMeNle][NMeNle]LCG-NH2; thioether N-14): the IC50 stood at 6.5 nM.

On to `CCCC[C@H]1C(=O)N(C)[C@@H](CCCC)C(=O)N[C@@H](CC(C)C)C(=O)N[C@H](C(=O)NCC(N)=O)CSCC(=O)N[C@@H](Cc2ccc(O)cc2)C(=O)N(C)[C@@H](C)C(=O)N[C@@H](CC(N)=O)C(=O)N2CCC[C@H]2C(=O)N[C@@H](CNC(=S)Nc2ccc([N+](=O)[O-])cc2OC)C(=O)N[C@@H](CC(C)C)C(=O)N2C[C@H](O)C[C@H]2C(=O)N[C@@H](Cc2c[nH]c3ccccc23)C(=O)N[C@@H](CCNC(=S)Nc2ccc([N+](=O)[O-])cc2OC)C(=O)N[C@@H](Cc2cn(CC(=O)O)c3ccccc23)C(=O)N1C` [Example 1104] ({CH2CO}-Y[NMeA]NP[Dap](X63)L[Hyp]W[Dab](X63)[Trp(1-CH2COOH)][NMeNle][NMeNle]LCG-NH2; thioether N-14), for which the IC50 worked out at 12 nM.

Still in this assay, the particulars now being: PD-L1-His 10 nM pre-incubated with inhibitor, PD-1-Ig 20 nM; read-out: HTRF IC50.
As for `CCCC[C@H]1C(=O)N(C)[C@@H](CCCC)C(=O)N[C@@H](CC(C)C)C(=O)N[C@H](C(=O)NCC(N)=O)CSCC(=O)N[C@@H](Cc2ccc(O)cc2)C(=O)N(C)[C@@H](C)C(=O)N[C@@H](CC(N)=O)C(=O)N2CCC[C@H]2C(=O)N[C@@H](CN)C(=O)N[C@@H](CC(C)C)C(=O)N2C[C@H](O)C[C@H]2C(=O)N[C@@H](Cc2c[nH]c3ccccc23)C(=O)N[C@@H](CCNC(=O)Nc2cc(F)cc(F)c2)C(=O)N[C@@H](Cc2cn(CC(=O)O)c3ccccc23)C(=O)N1C` [Example 1101] ({CH2CO}-Y[NMeA]NP[Dap]L[Hyp]W[Dab]([CO-X37])[Trp(1-CH2COOH)][NMeNle][NMeNle]LCG-NH2; thioether N-14), the IC50 came out at 8.6 nM. Same read-out and setting: to `CCCC[C@H]1C(=O)N(C)[C@@H](CCCC)C(=O)N[C@@H](CC(C)C)C(=O)N[C@H](C(=O)NCC(N)=O)CSCC(=O)N[C@@H](Cc2ccc(O)cc2)C(=O)N(C)[C@@H](C)C(=O)N[C@@H](CC(N)=O)C(=O)N2CCC[C@H]2C(=O)N[C@@H](CNC(=O)Nc2ccc(C(F)(F)F)cc2Cl)C(=O)N[C@@H](CC(C)C)C(=O)N2C[C@H](O)C[C@H]2C(=O)N[C@@H](Cc2c[nH]c3ccccc23)C(=O)N[C@@H](CCN)C(=O)N[C@@H](Cc2cn(CC(=O)O)c3ccccc23)C(=O)N1C` [Example 1105] ({CH2CO}-Y[NMeA]NP[Dap]([CO-X30])L[Hyp]W[Dab][Trp(1-CH2COOH)][NMeNle][NMeNle]LCG-NH2; thioether N-14) belongs 26 nM; to `CCCC[C@H]1C(=O)N(C)[C@@H](CCCC)C(=O)N[C@@H](CC(C)C)C(=O)N[C@H](C(=O)NCC(N)=O)CSCC(=O)N[C@@H](Cc2ccc(O)cc2)C(=O)N(C)[C@@H](C)C(=O)N[C@@H](CC(N)=O)C(=O)N2CCC[C@H]2C(=O)N[C@@H](CNC(=O)Nc2cc(Cl)ccc2C)C(=O)N[C@@H](CC(C)C)C(=O)N2C[C@H](O)C[C@H]2C(=O)N[C@@H](Cc2c[nH]c3ccccc23)C(=O)N[C@@H](CCN)C(=O)N[C@@H](Cc2cn(CC(=O)O)c3ccccc23)C(=O)N1C` [Example 1106] ({CH2CO}-Y[NMeA]NP[Dap]([CO-X15])L[Hyp]W[Dab][Trp(1-CH2COOH)][NMeNle][NMeNle]LCG-NH2; thioether N-14), 9.98 nM; to `CCCC[C@H]1C(=O)N(C)[C@@H](CCCC)C(=O)N[C@@H](CC(C)C)C(=O)N[C@H](C(=O)NCC(N)=O)CSCC(=O)N[C@@H](Cc2ccc(O)cc2)C(=O)N(C)[C@@H](C)C(=O)N[C@@H](CC(N)=O)C(=O)N2CCC[C@H]2C(=O)N[C@@H](CNC(=O)Nc2c(C)cccc2Cl)C(=O)N[C@@H](CC(C)C)C(=O)N2C[C@H](O)C[C@H]2C(=O)N[C@@H](Cc2c[nH]c3ccccc23)C(=O)N[C@@H](CCNC(=O)Nc2c(C)cccc2Cl)C(=O)N[C@@H](Cc2cn(CC(=O)O)c3ccccc23)C(=O)N1C` [Example 1107] ({CH2CO}-Y[NMeA]NP[Dap]([CO-X51])L[Hyp]W[Dab]([CO-X51])[Trp(1-CH2COOH)][NMeNle][NMeNle]LCG-NH2; thioether N-14), 0.5 nM. For the compound `CCCC[C@H]1C(=O)N(C)[C@@H](CCCC)C(=O)N[C@@H](CC(C)C)C(=O)N[C@H](C(=O)NCC(N)=O)CSCC(=O)N[C@@H](Cc2ccc(O)cc2)C(=O)N(C)[C@@H](C)C(=O)N[C@@H](CC(N)=O)C(=O)N2CCC[C@H]2C(=O)N[C@@H](CNC(=O)Nc2ccc([N+](=O)[O-])cc2OC)C(=O)N[C@@H](CC(C)C)C(=O)N2C[C@H](O)C[C@H]2C(=O)N[C@@H](Cc2c[nH]c3ccccc23)C(=O)N[C@@H](CCN)C(=O)N[C@@H](Cc2cn(CC(=O)O)c3ccccc23)C(=O)N1C` [Example 1108] ({CH2CO}-Y[NMeA]NP[Dap]([CO-X56])L[Hyp]W[Dab][Trp(1-CH2COOH)][NMeNle][NMeNle]LCG-NH2; thioether N-14), the IC50 came to 2.4 nM. The same measure, in the same setting: to `CCCC[C@H]1C(=O)N(C)[C@@H](CCCC)C(=O)N[C@@H](CC(C)C)C(=O)N[C@H](C(=O)NCC(N)=O)CSCC(=O)N[C@@H](Cc2ccc(O)cc2)C(=O)N(C)[C@@H](C)C(=O)N[C@@H](CC(N)=O)C(=O)N2CCC[C@H]2C(=O)N[C@@H](CNC(=S)Nc2c(Cl)cc(Cl)cc2Cl)C(=O)N[C@@H](CC(C)C)C(=O)N2C[C@H](O)C[C@H]2C(=O)N[C@@H](Cc2c[nH]c3ccccc23)C(=O)N[C@@H](CCN)C(=O)N[C@@H](Cc2cn(CC(=O)O)c3ccccc23)C(=O)N1C` [Example 1109] ({CH2CO}-Y[NMeA]NP[Dap](X78)L[Hyp]W[Dab][Trp(1-CH2COOH)][NMeNle][NMeNle]LCG-NH2; thioether N-14) belongs 1.5 nM; to `CCCC[C@H]1C(=O)N(C)[C@@H](CCCC)C(=O)N[C@@H](CC(C)C)C(=O)N[C@H](C(=O)NCC(N)=O)CSCC(=O)N[C@@H](Cc2ccc(O)cc2)C(=O)N(C)[C@@H](C)C(=O)N[C@@H](CC(N)=O)C(=O)N2CCC[C@H]2C(=O)N[C@@H](CNC(=S)Nc2c(Cl)c(Cl)cc(Cl)c2Cl)C(=O)N[C@@H](CC(C)C)C(=O)N2C[C@H](O)C[C@H]2C(=O)N[C@@H](Cc2c[nH]c3ccccc23)C(=O)N[C@@H](CCN)C(=O)N[C@@H](Cc2cn(CC(=O)O)c3ccccc23)C(=O)N1C` [Example 1110] ({CH2CO}-Y[NMeA]NP[Dap](X67)L[Hyp]W[Dab][Trp(1-CH2COOH)][NMeNle][NMeNle]LCG-NH2; thioether N-14), 2 nM; to `CCCC[C@H]1C(=O)N(C)[C@@H](CCCC)C(=O)N[C@@H](CC(C)C)C(=O)N[C@H](C(=O)NCC(N)=O)CSCC(=O)N[C@@H](Cc2ccc(O)cc2)C(=O)N(C)[C@@H](C)C(=O)N[C@@H](CC(N)=O)C(=O)N2CCC[C@H]2C(=O)N[C@@H](CNC(=S)Nc2ccc([N+](=O)[O-])cc2Cl)C(=O)N[C@@H](CC(C)C)C(=O)N2C[C@H](O)C[C@H]2C(=O)N[C@@H](Cc2c[nH]c3ccccc23)C(=O)N[C@@H](CCN)C(=O)N[C@@H](Cc2cn(CC(=O)O)c3ccccc23)C(=O)N1C` [Example 1111] ({CH2CO}-Y[NMeA]NP[Dap](X18)L[Hyp]W[Dab][Trp(1-CH2COOH)][NMeNle][NMeNle]LCG-NH2; thioether N-14), 9 nM. Take `CCCC[C@H]1C(=O)N(C)[C@@H](CCCC)C(=O)N[C@@H](CC(C)C)C(=O)N[C@H](C(=O)NCC(N)=O)CSCC(=O)N[C@@H](Cc2ccc(O)cc2)C(=O)N(C)[C@@H](C)C(=O)N[C@@H](CC(N)=O)C(=O)N2CCC[C@H]2C(=O)N[C@@H](CNC(=S)Nc2ccc([N+](=O)[O-])cc2OC)C(=O)N[C@@H](CC(C)C)C(=O)N2C[C@H](O)C[C@H]2C(=O)N[C@@H](Cc2c[nH]c3ccccc23)C(=O)N[C@@H](CCN)C(=O)N[C@@H](Cc2cn(CC(=O)O)c3ccccc23)C(=O)N1C` [Example 1112] ({CH2CO}-Y[NMeA]NP[Dap](X63)L[Hyp]W[Dab][Trp(1-CH2COOH)][NMeNle][NMeNle]LCG-NH2; thioether N-14): the IC50 stood at 1.2 nM. For the compound `CCCC[C@H]1C(=O)N(C)[C@@H](CCCC)C(=O)N[C@@H](CC(C)C)C(=O)N[C@H](C(=O)NCC(N)=O)CSCC(=O)N[C@@H](Cc2ccc(O)cc2)C(=O)N(C)[C@@H](C)C(=O)N[C@@H](CC(N)=O)C(=O)N2CCC[C@H]2C(=O)N[C@@H](CNC(=S)Nc2c(Cl)ccc(C)c2Cl)C(=O)N[C@@H](CC(C)C)C(=O)N2C[C@H](O)C[C@H]2C(=O)N[C@@H](Cc2c[nH]c3ccccc23)C(=O)N[C@@H](CCNC(=S)Nc2c(Cl)ccc(C)c2Cl)C(=O)N[C@@H](Cc2cn(CC(=O)O)c3ccccc23)C(=O)N1C` [Example 1113] ({CH2CO}-Y[NMeA]NP[Dap](X28)L[Hyp]W[Dab](X28)[Trp(1-CH2COOH)][NMeNle][NMeNle]LCG-NH2; thioether N-14), the IC50 came out at 9.3 nM.

With `CCCC[C@H]1C(=O)N(C)[C@@H](CCCC)C(=O)N[C@@H](CC(C)C)C(=O)N[C@H](C(=O)NCC(N)=O)CSCC(=O)N[C@@H](Cc2ccc(O)cc2)C(=O)N(C)[C@@H](C)C(=O)N[C@@H](CC(N)=O)C(=O)N2CCC[C@H]2C(=O)N[C@@H](CNC(=O)Nc2c(F)cc(F)cc2F)C(=O)N[C@@H](CC(C)C)C(=O)N2C[C@H](O)C[C@H]2C(=O)N[C@@H](Cc2c[nH]c3ccccc23)C(=O)N[C@@H](CCNC(=O)Nc2c(C)cccc2Cl)C(=O)N[C@@H](Cc2cn(CC(=O)O)c3ccccc23)C(=O)N1C` [Example 1114] ({CH2CO}-Y[NMeA]NP[Dap]([CO-X90])L[Hyp]W[Dab]([CO-X51])[Trp(1-CH2COOH)][NMeNle][NMeNle]LCG-NH2; thioether N-14), the IC50 turned out to be 2.5 nM.
